Source: patent US20050079613A1, “Downregulation of cell surface glycoproteins by a family of human ubiquitin ligases” (Oregon Health & Science University, priority 2002, published 2005)

Tested on: HLA-A2.1
Assay: Pulse-chase of HLA-A2.1 maturation and turnover in transfected HeLa cells
Assay type: cell-based, human
Conditions: for effect of inhibitor on degradation of HLA-A2.1 heavy chains: MARCH-IV and HLA-A2.1 co-transfected cells, concanamycin A 50 nM, lactacystin 20 μM
Description: Metabolic labeling, immunoprecipitation and Western blotting. HeLa cells were grown to 80% confluency in 100 mm tissue culture dishes and transfected as above. Cells were incubated in serum-free and methionine-free medium for 30 minutes, and metabolically labeled with ^35S-cysteine/^35S-methionine (250 μCi, Amersham) for the indicated time. After labeling, cells were washed twice with PBS and either lysed immediately in PBS containing 1% Triton X-100 and protease inhibitors (Roche, Indianapolis, Ind.), or the label was chased with excess (2 mM) unlabeled cysteine and methionine in the presence or absence of specific inhibitors for the indicated time. The cell lysates were precleared with protein A/G agarose beads and incubated with 3 μg of antibody for one hour and followed by two hours incubation with protein A/G beads. Immunoprecipated proteins were washed five times with 0.1% Triton X-100 in PBS. All samples were boiled in SDS buffer and analyzed by SDS-PAGE gel electrophoresis. Where indicated, samples were treated with Endoglycosidase H (Roche) according to manufacturer's instructions. Briefly, samples were initially denatured at 100° C. in 40 μl of 0.3% SDS, 150 mM 2-mercaptoethanol, 50 mM sodium acetate, pH 5.5 and incubated with 4 milli-Units of Endo H overnight at 37° C. All samples were boiled in SDS buffer and analyzed by SDS-PAGE gel electrophoresis. Gels were fixed, dried and exposed to Kodak BioMax MR film. Western blotting was accomplished using the WesternBreeze Chemiluminescent Detection System (Invitrogen) following Semi-dry transfer to PVDF membranes (Millipore, Bedford, Mass.).
To determine the ultimate fate of the MHC I molecules in the presence of MARCH-IV, the maturation and turnover of co-transfected HLA-A2.1 in pulse-chase experiments (FIG. 12B) was followed. In the absence of MARCH-IV, HLA-A2.1 molecules acquired Endo H resistance after 1 hour of chase indicating exit from the ER. […]

SMILES	effect of inhibitor on degradation of HLA-A2.1 heavy chains	effect of inhibitor on HLA-A2.1 in the absence of MARCH-IV (cells without MARCH-IV)
CC(=O)N[C@@H](CSC(=O)[C@]1([C@@H](O)C(C)C)NC(=O)[C@H](C)[C@@H]1O)C(=O)O [lactacystin]	did not increase recovery of HLA-A2.1 heavy chains	–
C/C=C/[C@H]1O[C@@](O)([C@@H](C)[C@H](O)[C@H](C)[C@H]2OC(=O)/C(OC)=C/C(C)=C/[C@@H](C)[C@@H](O)[C@@H](CC)[C@@H](O)[C@H](C)C/C(C)=C/C=C/[C@@H]2OC)C[C@@H](O[C@H]2C[C@@H](O)[C@H](OC(N)=O)[C@@H](C)O2)[C@@H]1C [concanamycin A]	delayed the degradation of HLA-A2.1	no effect
